Data from US20240327364A1, “THERAPEUTIC TARGETING OF GPR68 TO INDUCE FERROPTOSIS” (University Of Maryland, Baltimore, priority 2023, published 2024).

Tests used:
T-47D = assay: Cell Titer-Glo viability, Breast cancer; assay type: cell-based
Method: OGM2 kills wide variety of cancer cell types. Cell sensitivity can be classified in to Very Sensitive (LC50<2 μM), Sensitive (LC50=2 to 10 μM), Mildly Sensitive (LC50>10 μM), and Refractory (no killing at 10 μM). The listed established cell were incubated with OGM2 at 2 μM or 10 μM for 72 hours under standard cell culture conditions, and relative cell number was assessed using Cell Titer-Glo Luminescent Cell Viability Assay (Promega™) following the manufacturer's instructions. Luminescence was determined using a Cytation 5 reader and Gen5 software package (BioTek™).
Cancer cells, which are very sensitive to killing by OGM2 (LCs <2 μM), with reported mRNA expression of GPR68 and the related proton sensing receptor GPR4. LC50's (concentrations causing 50% lethality) were determined using CellTiter-Glo (Promega™, G7570). Cells were plated in 12-well plates (CELLTREAT Scientific Products, 229112) in 1 ml of DMEM with high glucose, GlutaMAX, HEPES, or RPMI 1640 with Penicillin-Streptomycin (ThermoFisher™, 10564029, 11875119 and 15140122) and 10% FBS. Cells were incubated overnight at 37° C. in 5% CO2. Then 1 mL of fresh media was added with DMSO, OGM, or positive control (Erastin; APExBIO Technology, LLC, B1524) and cells incubated for 3 days. On the third day, all media was removed, cells were rinsed with 1×PBS, PBS was removed, and 200 μL of 1× Passive Lysis Buffer (Promega™, E1941) was added to each well. […]. Subsequently, 20 μL of lysate was added to 100 μL CellTiter-Glo™ reagent on a LUMITRAC 200 plate (Greiner™ bio-one, 82050-726). Plates were briefly spun down and read on a GloMax-Multi Detection System (Promega™).
The cells listed in the tables above were incubated with OGM2 at 2 μM or 10 μM for 72 hours under standard cell culture conditions, and relative cell number was assessed using Cell Titer-Glo Luminescent Cell Viability Assay (Promega™) following the manufacturer's instructions. Luminescence was determined using a Cytation 5 reader and Gen5 software package (BioTek™). RNA expression of GPR68 and GPR4 in the corresponding cancer cell lines are listed, according to the publicly available The Human Protein Atlas version 22.0 and Ensembl version 103.38 (see proteinatlas.org). The consensus normalized expression value (“nTPM”=normalize transcript per million) was calculated as the maximum nTPM value for each gene in the two data sources.

ULK1 = target: T1, ULK1 (Homo sapiens, UniProt O75385); assay: KinomeScan; assay type: binding; settings: read-out: % Control
T1 construct: purchased DiscoveRx
T1 sequence (O75385 whole entry): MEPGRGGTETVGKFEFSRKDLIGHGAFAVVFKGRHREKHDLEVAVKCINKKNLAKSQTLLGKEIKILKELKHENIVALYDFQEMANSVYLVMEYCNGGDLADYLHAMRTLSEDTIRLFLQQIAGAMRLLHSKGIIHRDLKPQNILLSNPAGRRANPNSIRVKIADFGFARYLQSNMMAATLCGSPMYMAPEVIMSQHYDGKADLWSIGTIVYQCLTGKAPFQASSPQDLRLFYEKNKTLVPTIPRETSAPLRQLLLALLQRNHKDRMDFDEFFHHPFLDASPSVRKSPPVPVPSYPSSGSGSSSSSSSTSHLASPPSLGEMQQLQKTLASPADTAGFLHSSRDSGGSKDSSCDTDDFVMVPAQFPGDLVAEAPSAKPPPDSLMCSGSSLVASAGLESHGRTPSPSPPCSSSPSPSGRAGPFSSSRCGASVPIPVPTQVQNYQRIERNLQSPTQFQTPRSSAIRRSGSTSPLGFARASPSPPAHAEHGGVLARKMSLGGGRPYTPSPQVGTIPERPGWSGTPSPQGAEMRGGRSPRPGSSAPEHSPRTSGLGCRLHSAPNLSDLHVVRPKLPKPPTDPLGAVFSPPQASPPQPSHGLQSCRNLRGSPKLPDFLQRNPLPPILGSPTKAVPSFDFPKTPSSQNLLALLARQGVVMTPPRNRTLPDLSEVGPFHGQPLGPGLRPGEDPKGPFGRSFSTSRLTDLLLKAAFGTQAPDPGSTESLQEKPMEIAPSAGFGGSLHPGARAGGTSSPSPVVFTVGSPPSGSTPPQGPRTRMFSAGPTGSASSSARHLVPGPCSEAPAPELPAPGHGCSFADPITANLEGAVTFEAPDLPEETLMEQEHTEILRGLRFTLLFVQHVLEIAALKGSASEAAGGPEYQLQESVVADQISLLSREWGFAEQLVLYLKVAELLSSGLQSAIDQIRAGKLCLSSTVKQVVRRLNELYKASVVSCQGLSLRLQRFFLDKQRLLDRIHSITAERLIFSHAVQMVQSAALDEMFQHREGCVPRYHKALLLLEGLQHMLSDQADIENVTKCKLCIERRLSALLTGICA

[1] = target: T2, RSK4(Kin.Dom.2-C-terminal) (Homo sapiens, UniProt Q9UK32); assay: KinomeScan; assay type: binding; settings: read-out: % Control
T2 construct: RSK4(Kin.Dom.2-C-terminal); purchased DiscoveRx (Fremont, CA)

[2] = target: T3, EGFR(L747-E749del, A750P) (Homo sapiens, UniProt P00533, A750P/DEL747-749); assay: KinomeScan; assay type: binding; settings: read-out: % Control
T3 construct: purchased DiscoveRx (Fremont, CA), KinomeScan service

KIT(V559D, V654A) = target: T4, KIT(V559D, V654A) (Homo sapiens, UniProt P10721, V559D/V654A); assay: KinomeScan; assay type: binding; settings: read-out: % Control
T4 construct: purchased DiscoveRx

NEK1 = target: T5, NEK1 (Homo sapiens, UniProt Q96PY6); assay: KinomeScan; assay type: binding; settings: read-out: % Control
T5 construct: purchased DiscoveRx

VPAC2 = target: T6, VPAC2 (Homo sapiens, UniProt P41587); assay: GPCR Profiler; assay type: cell-based
T6 construct: host or cells: Chem-1 cells expressing Galpha15
T6 sequence (P41587 24-438): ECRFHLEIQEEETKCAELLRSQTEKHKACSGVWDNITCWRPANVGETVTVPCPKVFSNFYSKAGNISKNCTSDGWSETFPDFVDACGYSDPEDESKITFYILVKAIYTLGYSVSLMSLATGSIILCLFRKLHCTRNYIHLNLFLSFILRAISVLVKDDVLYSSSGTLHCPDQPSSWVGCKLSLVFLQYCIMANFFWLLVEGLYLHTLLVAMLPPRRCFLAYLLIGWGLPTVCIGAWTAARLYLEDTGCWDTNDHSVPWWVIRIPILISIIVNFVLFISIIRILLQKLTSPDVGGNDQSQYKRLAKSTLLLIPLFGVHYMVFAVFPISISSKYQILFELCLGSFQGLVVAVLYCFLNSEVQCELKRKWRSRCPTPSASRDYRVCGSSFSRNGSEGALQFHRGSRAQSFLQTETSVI

VRK2 = target: T7, VRK2 (Homo sapiens, UniProt Q86Y07); assay: KinomeScan; assay type: binding; settings: read-out: % Control
T7 construct: purchased DiscoveRx

GIP = target: T8, GIP (Homo sapiens, UniProt P48546); assay: GPCR Profiler; assay type: cell-based
T8 construct: host or cells: Chem-1 cells expressing Gα15
T8 sequence (P48546 22-466): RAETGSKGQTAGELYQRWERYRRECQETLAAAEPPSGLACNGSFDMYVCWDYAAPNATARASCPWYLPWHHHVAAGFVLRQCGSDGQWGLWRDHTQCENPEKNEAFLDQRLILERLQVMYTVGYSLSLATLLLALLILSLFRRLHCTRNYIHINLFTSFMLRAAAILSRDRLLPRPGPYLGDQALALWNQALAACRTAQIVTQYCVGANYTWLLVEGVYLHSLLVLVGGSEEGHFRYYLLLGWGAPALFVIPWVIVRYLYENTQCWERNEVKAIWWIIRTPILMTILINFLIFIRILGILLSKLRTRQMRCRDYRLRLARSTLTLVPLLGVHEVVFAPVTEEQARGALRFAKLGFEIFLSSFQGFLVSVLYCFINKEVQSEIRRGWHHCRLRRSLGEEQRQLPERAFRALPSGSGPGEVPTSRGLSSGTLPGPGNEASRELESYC

PK2 = target: T9, PK2 (Homo sapiens, UniProt Q8NFJ6); assay: GPCR Profiler; assay type: cell-based
T9 construct: host or cells: Chem-1 cells with Gα15
T9 sequence (Q8NFJ6 whole entry): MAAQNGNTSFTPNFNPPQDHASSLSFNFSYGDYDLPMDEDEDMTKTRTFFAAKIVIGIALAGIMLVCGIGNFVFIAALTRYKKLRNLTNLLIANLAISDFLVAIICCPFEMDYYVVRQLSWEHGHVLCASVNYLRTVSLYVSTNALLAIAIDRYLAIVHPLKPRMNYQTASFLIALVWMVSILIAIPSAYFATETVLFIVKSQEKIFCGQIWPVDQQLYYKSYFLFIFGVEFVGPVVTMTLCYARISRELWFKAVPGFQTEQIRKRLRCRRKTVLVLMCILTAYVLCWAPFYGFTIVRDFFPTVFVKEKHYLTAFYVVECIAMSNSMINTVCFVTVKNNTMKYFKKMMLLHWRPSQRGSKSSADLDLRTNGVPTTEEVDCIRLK

TESK1 = target: T10, TESK1 (Homo sapiens, UniProt Q15569); assay: KinomeScan; assay type: binding; settings: read-out: % Control
T10 construct: purchased DiscoveRx (Fremont, CA)
T10 sequence (Q15569 whole entry): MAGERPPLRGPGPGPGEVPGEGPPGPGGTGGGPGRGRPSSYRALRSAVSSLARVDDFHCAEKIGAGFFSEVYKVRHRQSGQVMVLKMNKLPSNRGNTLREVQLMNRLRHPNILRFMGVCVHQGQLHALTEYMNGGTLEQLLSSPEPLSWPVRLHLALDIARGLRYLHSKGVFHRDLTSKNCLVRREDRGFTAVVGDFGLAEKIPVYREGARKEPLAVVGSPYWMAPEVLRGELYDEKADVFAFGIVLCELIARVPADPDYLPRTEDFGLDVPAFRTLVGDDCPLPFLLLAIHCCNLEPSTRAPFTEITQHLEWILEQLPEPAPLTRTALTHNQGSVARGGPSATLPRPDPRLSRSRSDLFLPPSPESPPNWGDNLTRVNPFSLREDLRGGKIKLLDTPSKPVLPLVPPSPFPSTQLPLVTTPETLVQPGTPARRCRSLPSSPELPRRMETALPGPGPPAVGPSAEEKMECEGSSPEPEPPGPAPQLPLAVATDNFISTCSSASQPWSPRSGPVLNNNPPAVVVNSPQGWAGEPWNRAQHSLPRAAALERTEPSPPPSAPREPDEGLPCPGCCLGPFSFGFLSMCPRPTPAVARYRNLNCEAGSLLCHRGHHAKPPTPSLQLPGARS

VPAC1 = target: T11, VPAC1 (Homo sapiens, UniProt P32241); assay: GPCR Profiler; assay type: cell-based
T11 construct: host or cells: Chem-1 cells expressing Galpha15
T11 sequence (P32241 31-457): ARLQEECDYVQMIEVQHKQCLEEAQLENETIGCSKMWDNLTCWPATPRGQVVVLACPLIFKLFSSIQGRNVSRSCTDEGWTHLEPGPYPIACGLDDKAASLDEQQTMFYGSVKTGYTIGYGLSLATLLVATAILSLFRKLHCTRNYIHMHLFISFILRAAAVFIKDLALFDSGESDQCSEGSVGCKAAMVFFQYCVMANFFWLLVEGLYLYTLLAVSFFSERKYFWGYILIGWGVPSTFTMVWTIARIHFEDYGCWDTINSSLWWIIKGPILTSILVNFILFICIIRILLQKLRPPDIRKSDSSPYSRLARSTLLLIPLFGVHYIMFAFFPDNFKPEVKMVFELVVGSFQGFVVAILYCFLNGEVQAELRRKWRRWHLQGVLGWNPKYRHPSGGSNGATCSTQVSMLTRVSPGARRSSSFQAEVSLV

ADCK3 = target: T12, ADCK3 (Homo sapiens, UniProt Q8NI60); assay: KinomeScan; assay type: binding; settings: read-out: % Control
T12 construct: purchased DiscoveRx (Fremont, CA)

p38-alpha = target: T13, p38-alpha (Homo sapiens, UniProt Q16539); assay: KinomeScan; assay type: binding; settings: read-out: % Control
T13 construct: purchased DiscoveRx

NTR1 = target: T14, NTR1 (Homo sapiens, UniProt P30989); assay: GPCR Profiler; assay type: cell-based
T14 construct: host or cells: Chem-1 cells expressing Gα15
T14 sequence (P30989 whole entry, species assumed): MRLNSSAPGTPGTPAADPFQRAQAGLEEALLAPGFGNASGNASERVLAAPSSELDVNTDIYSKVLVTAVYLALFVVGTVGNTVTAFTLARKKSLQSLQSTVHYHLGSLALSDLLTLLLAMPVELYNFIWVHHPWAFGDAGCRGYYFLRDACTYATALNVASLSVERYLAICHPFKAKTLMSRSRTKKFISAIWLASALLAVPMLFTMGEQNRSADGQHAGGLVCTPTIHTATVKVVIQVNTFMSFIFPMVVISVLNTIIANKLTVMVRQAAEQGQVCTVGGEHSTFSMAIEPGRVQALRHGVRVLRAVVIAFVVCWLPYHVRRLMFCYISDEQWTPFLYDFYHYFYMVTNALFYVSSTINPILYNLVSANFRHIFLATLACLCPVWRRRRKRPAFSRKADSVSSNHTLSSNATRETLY

MAP3K1 = target: T15, MAP3K1 (Homo sapiens, UniProt Q13233); assay: KinomeScan; assay type: binding; settings: read-out: % Control
T15 construct: purchased DiscoveRx

ABL2 = target: T16, ABL2 (Homo sapiens, UniProt P42684); assay: KinomeScan; assay type: binding; settings: read-out: % Control
T16 construct: purchased DiscoveRx
T16 sequence (P42684 288-539 limits assumed): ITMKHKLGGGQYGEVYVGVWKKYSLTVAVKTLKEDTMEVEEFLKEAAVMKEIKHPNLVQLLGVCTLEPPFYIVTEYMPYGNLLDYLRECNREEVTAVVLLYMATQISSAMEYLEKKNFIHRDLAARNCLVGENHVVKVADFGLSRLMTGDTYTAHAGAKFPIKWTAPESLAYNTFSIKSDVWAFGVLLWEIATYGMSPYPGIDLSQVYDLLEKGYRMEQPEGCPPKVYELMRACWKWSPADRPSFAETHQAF

NMU1 = target: T17, NMU1 (Homo sapiens, UniProt Q9HB89); assay: GPCR Profiler; assay type: cell-based
T17 construct: host or cells: Chem-1 cells expressing Gα15
T17 sequence (Q9HB89 whole entry): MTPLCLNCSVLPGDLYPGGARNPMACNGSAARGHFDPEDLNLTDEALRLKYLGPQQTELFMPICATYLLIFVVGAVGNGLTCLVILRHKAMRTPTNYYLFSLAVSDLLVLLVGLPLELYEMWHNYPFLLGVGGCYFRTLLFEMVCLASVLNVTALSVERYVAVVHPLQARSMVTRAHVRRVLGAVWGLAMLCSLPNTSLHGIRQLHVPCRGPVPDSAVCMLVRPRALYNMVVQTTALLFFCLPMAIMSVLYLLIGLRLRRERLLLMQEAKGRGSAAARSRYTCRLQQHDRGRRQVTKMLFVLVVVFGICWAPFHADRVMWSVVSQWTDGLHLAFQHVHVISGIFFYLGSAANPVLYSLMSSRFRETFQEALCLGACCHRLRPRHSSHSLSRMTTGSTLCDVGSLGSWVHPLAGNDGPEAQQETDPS

DMPK = target: T18, DMPK (Homo sapiens, UniProt Q09013); assay: KinomeScan; assay type: binding; settings: read-out: % Control
T18 construct: purchased DiscoveRx (Fremont, CA), KinomeScan service

CXCR1 = target: T19, CXCR1 (Homo sapiens, UniProt P25024); assay: GPCR Profiler; assay type: cell-based
T19 construct: host or cells: Chem-1 cells with Gα15
T19 sequence (P25024 whole entry, species assumed): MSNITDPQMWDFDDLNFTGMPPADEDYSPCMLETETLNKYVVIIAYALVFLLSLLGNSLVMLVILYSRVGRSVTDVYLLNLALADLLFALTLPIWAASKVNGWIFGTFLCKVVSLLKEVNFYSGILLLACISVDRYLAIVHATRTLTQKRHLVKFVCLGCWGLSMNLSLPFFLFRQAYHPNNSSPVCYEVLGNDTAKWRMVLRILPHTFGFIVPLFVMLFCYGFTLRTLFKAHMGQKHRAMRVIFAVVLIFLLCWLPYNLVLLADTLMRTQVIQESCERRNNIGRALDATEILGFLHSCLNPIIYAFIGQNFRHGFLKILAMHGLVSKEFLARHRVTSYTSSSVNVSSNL

CCc1ccc2c(c1)C1(NN=C(c3ccccc3)S1)C(=O)N2 (stereo not drawn) [OGM2]
Class (T-47D): Mildly
% Survival 2 μM OGM (T-47D; 72 hours): 76.4%
% Survival 10 μM OGM (T-47D; 72 hours): 61.7%
CC50 (T-47D; Homo sapiens, T47D, 72 hours, read-out: LC50 (the source's name)): > 10 µM

CCc1ccc2c(c1)C1(NN=C(c3cccc4ccccc34)S1)C(=O)N2 (stereo not drawn) [OGM1, 5-ethyl-5′-naphthalen-1-ylspiro[1H-indole-3,2′-3H-1,3,4-thiadiazole]-2-one]
remaining binding at 10 µM (ULK1): 100%
remaining binding at 10 µM [1]: 41%
remaining binding at 10 µM [2]: 91%
remaining binding at 10 µM (KIT(V559D, V654A)): 100%
remaining binding at 10 µM (NEK1): 83%
Antagonism (VPAC2; 10 uM): 6.9
Agonism (VPAC2; 12.5 uM): 10.7
remaining binding at 10 µM (VRK2): 93%
Antagonism (GIP; 10 uM): 0.2
Agonism (GIP; 12.5 uM): 1.5
Antagonism (PK2; 10 uM): 7.2
Agonism (PK2; 12.5 uM): −0.1
remaining binding at 10 µM (TESK1): 100%
Antagonism (VPAC1; 10 uM): 16.6
Agonism (VPAC1; 12.5 uM): 0
remaining binding at 10 µM (ADCK3): 100%
remaining binding at 10 µM (p38-alpha): 54%
Antagonism (NTR1; 10 uM): 1.6
Agonism (NTR1; 12.5 uM): 1
remaining binding at 10 µM (MAP3K1): 72%
remaining binding at 10 µM (ABL2): 100%
Antagonism (NMU1; 10 uM): 6.2
Agonism (NMU1; 12.5 uM): 1.8
remaining binding at 10 µM (DMPK): 86%
Antagonism (CXCR1; 10 uM): 6.5
Agonism (CXCR1; 12.5 uM): −0.7
